Experimental data taken from patent publication US10047086B2, “Imidazopyridines and imidazopyrazines as LSD1 inhibitors” (Incyte Corporation, priority 2014, dated 2018).

target: LSD-1 enzyme (Homo sapiens (Human), UniProt O60341); assay: LANCE LSD1/KDM1A demethylase assay (LSD1 histone demethylase biochemical assay); conditions: 1 nM LSD-1 enzyme, 1 hour preincubation at 25° C., 0.4 μM Biotin-labeled Histone H3 peptide substrate
Method: LSD1 Histone Demethylase Biochemical Assay
LANCE LSD1/KDM1A demethylase assay-10 μL of 1 nM LSD-1 enzyme (ENZO BML-SE544-0050) in the assay buffer (50 mM Tris, pH 7.5, 0.01% Tween-20, 25 mM NaCl, 5 mM DTT) were preincubated for 1 hour at 25° C. with 0.8 μL compound/DMSO dotted in black 384 well polystyrene plates. […] Reactions were stopped by addition of 10 μL 1× LANCE Detection Buffer (PerkinElmer CR97-100) supplemented with 1.5 nM Eu-anti-unmodified H3K4 Antibody (PerkinElmer TRF0404), and 225 nM LANCE Ultra Streptavidin (PerkinElmer TRF102) along with 0.9 mM Tranylcypromine-HCl (Millipore 616431). After stopping the reactions plates were incubated for 30 minutes and read on a PHERAstar FS plate reader (BMG Labtech).

**Q.** `COC(=O)N(C)Cc1ccc(-c2c(-c3ccc(C#N)cc3)nc(OC[C@@H]3CCCN(C)C3)c3cncn23)cc1F` [Example 48, methyl [4-(6-(4-cyanophenyl)-8-{[(3R)-1-methylpiperidin-3-yl]methoxy}imidazo[1,5-a]pyrazin-5-yl)-2-fluorobenzyl]methylcarbamate] was tested. Which IC50 did it give?
**A.** ≤ 0.05 µM

**Q.** With `CN(C)C1CCN(c2nc(-c3ccc(C#N)cc3)c(-c3cnc4c(cnn4C)c3)n3cncc23)CC1` [Example 50, 4-[8-[4-(dimethylamino)piperidin-1-yl]-5-(1-methyl-1H-pyrazolo[3,4-b]pyridin-5-yl)imidazo[1,5-a]pyrazin-6-yl]benzonitrile] as the compound, how does the IC50 read?
**A.** ≤ 0.05 µM

**Q.** Which IC50 does the source give for `CN(C)C1CCN(c2nc(-c3ccc(C#N)cc3)c(-c3ccc4c(c3)oc(=O)n4C)n3cncc23)CC1` [Example 51, 4-[8-[4-(dimethylamino)piperidin-1-yl]-5-(3-methyl-2-oxo-2,3-dihydro-1,3-benzoxazol-6-yl)imidazo[1,5-a]pyrazin-6-yl]benzonitrile] here?
**A.** ≤ 0.05 µM

**Q.** With `COc1ccc(-c2c(-c3ccc(C#N)cc3)nc(N3CCC(N(C)C)CC3)c3cncn23)cn1` [Example 53, 4-[8-[4-(dimethylamino)piperidin-1-yl]-5-(6-methoxypyridin-3-yl)imidazo[1,5-a]pyrazin-6-yl]benzonitrile] as the compound, how does the IC50 read?
**A.** ≤ 0.05 µM

**Q.** With `CN(C)C1CCN(c2nc(-c3ccc(C#N)cc3)c(-c3ccc(N4CCCC4=O)nc3)n3cncc23)CC1` [Example 54, 4-{8-[4-(dimethylamino)piperidin-1-yl]-5-[6-(2-oxopyrrolidin-1-yl)pyridin-3-yl]imidazo[1,5-a]pyrazin-6-yl}benzonitrile] as the compound, how does the IC50 read?
**A.** ≤ 0.05 µM

**Q.** How did the IC50 turn out when `CN1CCC[C@@H](COc2cc(-c3ccc(C#N)cc3)c(-c3ccc4nccnc4c3)n3cncc23)C1` [Example 56, (R)-4-(8-((1-methylpiperidin-3-yl)methoxy)-5-(quinoxalin-6-yl)imidazo[1,5-a]pyridin-6-yl)benzonitrile] was run?
**A.** ≤ 0.05 µM

**Q.** Which IC50 does the source give for `CN1CCC[C@@H](COc2cc(-c3ccc(C#N)cc3)c(-c3cnc4c(c3)oc(=O)n4C)n3cncc23)C1` [Example 57, (R)-4-(5-(3-methyl-2-oxo-2,3-dihydrooxazolo[4,5-b]pyridin-6-yl)-8-((1-methylpiperidin-3-yl)methoxy)imidazo[1,5-a]pyridin-6-yl)benzonitrile] here?
**A.** ≤ 0.05 µM

**Q.** How did the IC50 turn out when `CN1CCC[C@@H](COc2cc(-c3ccc(C#N)cc3)c(-c3cnc4c(c3)ncn4C)n3cncc23)C1` [Example 58, (R)-4-(5-(3-methyl-3H-imidazo[4,5-b]pyridin-6-yl)-8-((1-methylpiperidin-3-yl)methoxy)imidazo[1,5-a]pyridin-6-yl)benzonitrile] was run?
**A.** ≤ 0.05 µM

**Q.** How did the IC50 turn out when `CN1CCC[C@@H](COc2cc(-c3ccc(C#N)cc3)c(-c3cnc4c(c3)OCCO4)n3cncc23)C1` [Example 62, (R)-4-(5-(2,3-dihydro-[1,4]dioxino[2,3-b]pyridin-7-yl)-8-((1-methylpiperidin-3-yl)methoxy)imidazo[1,5-a]pyridin-6-yl)benzonitrile] was run?
**A.** ≤ 0.05 µM

**Q.** `CN1CCC[C@@H](COc2cc(-c3ccc(C#N)cc3)c(-c3ccc4c(c3)oc(=O)n4C)n3cncc23)C1` [Example 63, (R)-4-(5-(3-methyl-2-oxo-2,3-dihydrobenzo[d]oxazol-6-yl)-8-((1-methylpiperidin-3-yl)methoxy)imidazo[1,5-a]pyridin-6-yl)benzonitrile] was tested. Which IC50 did it give?
**A.** ≤ 0.05 µM

**Q.** For `CN1CCC[C@@H](COc2cc(-c3ccc(C#N)cc3)c(-c3ccc4c(c3)CC(=O)N4C)n3cncc23)C1` [Example 64, (R)-4-(5-(1-methyl-2-oxoindolin-5-yl)-8-((1-methylpiperidin-3-yl)methoxy)imidazo[1,5-a]pyridin-6-yl)benzonitrile], which IC50 is on record?
**A.** ≤ 0.05 µM

**Q.** For `CN1CCC[C@@H](COc2cc(-c3ccc(C#N)cc3)c(-c3ccc4c(c3)OCC(=O)N4C)n3cncc23)C1` [Example 65, (R)-4-(5-(4-methyl-3-oxo-3,4-dihydro-2H-benzo[b][1,4]oxazin-7-yl)-8-((1-methylpiperidin-3-yl)methoxy)imidazo[1,5-a]pyridin-6-yl)benzonitrile], which IC50 is on record?
**A.** ≤ 0.05 µM

**Q.** How did the IC50 turn out when `CCN1CCC[C@@H](COc2cc(-c3ccc(C#N)cc3)c(-c3cnc4c(c3)OCCO4)n3cncc23)C1` [Example 67, (R)-4-(5-(2,3-dihydro-[1,4]dioxino[2,3-b]pyridin-7-yl)-8-((1-ethylpiperidin-3-yl)methoxy)imidazo[1,5-a]pyridin-6-yl)benzonitrile] was run?
**A.** ≤ 0.05 µM

**Q.** For `COc1ncc(-c2c(-c3ccc(C#N)cc3)cc(OC[C@@H]3CCCN(C)C3)c3cncn23)cc1F` [Example 70, (R)-4-(5-(5-fluoro-6-methoxypyridin-3-yl)-8-((1-methylpiperidin-3-yl)methoxy)imidazo[1,5-a]pyridin-6-yl)benzonitrile], which IC50 is on record?
**A.** ≤ 0.05 µM

**Q.** With `CN1CCC[C@@H](COc2cc(-c3ccc(C#N)cc3)c(-c3ccc(N4CCCC4=O)nc3)n3cncc23)C1` [Example 71, (R)-4-(8-((1-methylpiperidin-3-yl)methoxy)-5-(6-(2-oxopyrrolidin-1-yl)pyridin-3-yl)imidazo[1,5-a]pyridin-6-yl)benzonitrile] as the compound, how does the IC50 read?
**A.** ≤ 0.05 µM

**Q.** How did the IC50 turn out when `COc1ccc(-c2c(-c3ccc(C#N)cc3)cc(OC[C@@H]3CCCN(C)C3)c3cncn23)cn1` [Example 72, 4-(5-(6-methoxypyridin-3-yl)-8-{[(3R)-1-methylpiperidin-3-yl]methoxy}imidazo[1,5-a]pyridin-6-yl)benzonitrile] was run?
**A.** ≤ 0.05 µM

**Q.** `CN1CCC[C@@H](COc2cc(-c3ccc(C#N)cc3)c(-c3cc(F)c(CO)c(F)c3)n3cncc23)C1` [Example 73, (R)-4-(5-(3,5-difluoro-4-(hydroxymethyl)phenyl)-8-((1-methylpiperidin-3-yl)methoxy)imidazo[1,5-a]pyridin-6-yl)benzonitrile] was tested. Which IC50 did it give?
**A.** ≤ 0.05 µM

**Q.** `Cc1cc(-c2c(-c3ccc(C#N)cc3)cc(OC[C@@H]3CCCN(C)C3)c3cncn23)cc(F)c1CO` [Example 75, 4-(5-[3-fluoro-4-(hydroxymethyl)-5-methylphenyl]-8-{[(3R)-1-methylpiperidin-3-yl]methoxy}imidazo[1,5-a]pyridin-6-yl)benzonitrile] was tested. Which IC50 did it give?
**A.** ≤ 0.05 µM

**Q.** With `Cc1ncc(-c2c(-c3ccc(C#N)cc3)cc(OC[C@@H]3CCCN(C)C3)c3cncn23)cc1O` [Example 76, 4-(5-(5-hydroxy-6-methylpyridin-3-yl)-8-{[(3R)-1-methylpiperidin-3-yl]methoxy}imidazo[1,5-a]pyridin-6-yl)benzonitrile] as the compound, how does the IC50 read?
**A.** ≤ 0.05 µM

**Q.** With `CN1CCC[C@@H](COc2cc(-c3ccc(C#N)cc3)c(-c3ccc(C(C)(C)O)cc3)n3cncc23)C1` [Example 77, 4-(5-[4-(1-hydroxy-1-methylethyl)phenyl]-8-{[(3R)-1-methylpiperidin-3-yl]methoxy}imidazo[1,5-a]pyridin-6-yl)benzonitrile] as the compound, how does the IC50 read?
**A.** ≤ 0.05 µM

**Q.** How did the IC50 turn out when `CN1CCC[C@@H](COc2cc(-c3ccc(C#N)cc3)c(-c3cnc(N4CCOCC4)c(F)c3)n3cncc23)C1` [Example 78, 4-(5-(5-fluoro-6-morpholin-4-ylpyridin-3-yl)-8-{[(3R)-1-methylpiperidin-3-yl]methoxy}imidazo[1,5-a]pyridin-6-yl)benzonitrile] was run?
**A.** ≤ 0.05 µM

**Q.** `Cc1cc(-c2c(-c3ccc(C#N)cc3)cc(OC[C@@H]3CCCN(C)C3)c3cncn23)ccc1CO` [Example 79, 4-(5-[4-(hydroxymethyl)-3-methylphenyl]-8-{[(3R)-1-methylpiperidin-3-yl]methoxy}imidazo[1,5-a]pyridin-6-yl)benzonitrile] was tested. Which IC50 did it give?
**A.** ≤ 0.05 µM

**Q.** Which IC50 does the source give for `CN1CCC[C@@H](COc2cc(-c3ccc(C#N)cc3)c(-c3ccc(N(C)C)nc3)n3cncc23)C1` [Example 80, 4-(5-[6-(dimethylamino)pyridin-3-yl]-8-{[(3R)-1-methylpiperidin-3-yl]methoxy}imidazo[1,5-a]pyridin-6-yl)benzonitrile] here?
**A.** ≤ 0.05 µM

**Q.** How did the IC50 turn out when `Cc1cc(-c2c(-c3ccc(C#N)cc3)cc(OC[C@@H]3CCCN(C)C3)c3cncn23)cnc1C` [Example 81, 4-(5-(5,6-dimethylpyridin-3-yl)-8-{[(3R)-1-methylpiperidin-3-yl]methoxy}imidazo[1,5-a]pyridin-6-yl)benzonitrile] was run?
**A.** ≤ 0.05 µM

**Q.** With `CN1CCC[C@@H](COc2cc(-c3ccc(C#N)cc3)c(-c3ccc(CN(C)C(=O)N(C)C)c(F)c3)n3cncc23)C1` [Example 82, N-[4-(6-(4-cyanophenyl)-8-{[(3R)-1-methylpiperidin-3-yl]methoxy}imidazo[1,5-a]pyridin-5-yl)-2-fluorobenzyl]-N,N′,N′-trimethylurea] as the compound, how does the IC50 read?
**A.** ≤ 0.05 µM

**Q.** How did the IC50 turn out when `CN(C)C1CCN(c2nc(-c3ccc(C#N)cc3)c(-c3ccc4c(c3)ncn4C)n3cncc23)CC1` [Example 83, 4-[8-[4-(dimethylamino)piperidin-1-yl]-5-(1-methyl-1H-benzimidazol-5-yl)imidazo[1,5-a]pyrazin-6-yl]benzonitrile] was run?
**A.** ≤ 0.05 µM

**Q.** How did the IC50 turn out when `CN(C)C1CCN(c2nc(-c3ccc(C#N)cc3)c(-c3cnc4c(ccn4C)c3)n3cncc23)CC1` [Example 84, 4-(8-(4-(dimethylamino)piperidin-1-yl)-5-(1-methyl-1H-pyrrolo[2,3-b]pyridin-5-yl)imidazo[1,5-a]pyrazin-6-yl)benzonitrile] was run?
**A.** ≤ 0.05 µM

**Q.** For `CN1CCC[C@@H](COc2nc(-c3ccc(C#N)cc3)c(-c3cnc4c(ccn4C)c3)n3cncc23)C1` [Example 85, 4-[8-{[(3R)-1-methylpiperidin-3-yl]methoxy}-5-(1-methyl-1H-pyrrolo[2,3-b]pyridin-5-yl)imidazo[1,5-a]pyrazin-6-yl]benzonitrile], which IC50 is on record?
**A.** ≤ 0.05 µM

**Q.** Which IC50 does the source give for `Cc1cc(-c2c(-c3ccc(C#N)cc3)nc(OC[C@@H]3CCCN(C)C3)c3cncn23)cnc1C` [Example 86, 4-(5-(5,6-dimethylpyridin-3-yl)-8-{[(3R)-1-methylpiperidin-3-yl]methoxy}imidazo[1,5-a]pyrazin-6-yl)benzonitrile] here?
**A.** ≤ 0.05 µM
